In data set [1] the target is T1, 5-hydroxytryptamine (5-HT1A) receptor (Bos taurus, UniProt F6Q2H9).
T1 construct: from tissue; host or cells: bovine brain homogenate
T1 sequence (F6Q2H9 1-422): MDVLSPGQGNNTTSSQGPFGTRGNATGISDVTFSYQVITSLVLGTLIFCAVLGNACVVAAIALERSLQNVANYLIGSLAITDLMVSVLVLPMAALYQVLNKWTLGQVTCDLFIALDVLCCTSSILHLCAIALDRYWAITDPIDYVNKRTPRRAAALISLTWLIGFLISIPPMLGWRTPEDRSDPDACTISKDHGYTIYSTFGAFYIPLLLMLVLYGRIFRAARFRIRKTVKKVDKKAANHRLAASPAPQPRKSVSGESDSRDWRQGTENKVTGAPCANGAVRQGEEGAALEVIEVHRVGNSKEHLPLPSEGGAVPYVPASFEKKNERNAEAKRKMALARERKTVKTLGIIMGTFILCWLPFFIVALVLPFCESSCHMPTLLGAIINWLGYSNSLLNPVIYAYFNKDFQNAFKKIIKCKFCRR
The data set is described as follows: Inhibition of 8-OH-DPAT binding in a bovine brain homogenate. As to conditions: read-out: Binding at the 5-HT1A receptor site, IC50. From the text: Binding: Inhibition of 8-OH-DPAT binding in a bovine brain homogenate. Potency is given as nM dose required to inhibit 50% of DPAT binding (IC50). This test measures ability to bind to 5-hydroxytryptamine (5-HT1A) receptor.

The test system of data set [2] is dorsal raphe 5-HT cell firing. Kind of data set: 5-HT cell firing in chloral hydrate anesthetized rats. The data set is classed as in vivo. Conditions: Rattus norvegicus, iv, read-out: Depression of 5-HT cell firing, ED50. From the text:
5-HT Cell Firing: The i.v. mg/kg dose causing a 50% depression in the firing of dorsal raphe 5-HT cell firing in chloral hydrate anesthetized rats.

The test system of data set [3] is spontaneous sympathetic activity. Kind of data set: Sympathetic nerve discharge (SND) in chloralose anesthetized cats. The data set is classed as in vivo. As to conditions: Felis catus, iv, dose range 0.001-1.0 mg/kg, read-out: Sympathetic nerve discharge, ED50 dose which inhibits spontaneous sympathetic activity. As for the experimental part:
Sympathetic Nerve Discharge (SND): The i.v. mg/kg dose causing a 50% depression in SND in chloralose anesthetized cats and the maximum inhibition of sympathetic activity observed in the dose range tested (0.001-1.0 mg/kg i.v.).

Data set [4] deals with rat hepatocytes. Kind of data set: In vitro rat hepatocyte intrinsic clearance. Conditions: for relative metabolic stability (rel. stab.): relative to cis-(±)2,3,3a,4,5,9b-hexahydro-9-carboxamido-3-(n-propyl)-1H-benz[e]indole, rat hepatocytes; for In vitro hepatocyte assay clearance: 2, 5 and 15 µg/ml, 60 minute incubation at 37°C, rat hepatocytes 5.0 million cells/ml. The data set is classed as in vitro ADME. Here is the method:
Aliquots of each incubate were withdrawn at preset times during the incubation and analyzed for parent compound using HPLC methodology. Intrinsic clearance is expressed as ml/min/5 million cells and metabolic stability relative to cis-(+)2,3,3a,4,5,9b-hexahydro-9-carboxamide-3-(n-propyl)-1H-benz[e]indole is determined.

The nature of data set [5]: Mouse hypothermia. The class given is in vivo. Conditions: dose depressing temperature by 2°C or more in two of four mice. Here is the method: Hypothermia: Starting with a dose of 30 mg/kg, four mice are injected subcutaneously with test compound. Twenty minutes later, the number of animals whose body temperature has decreased by 2°C. or more are counted. If all four animals reach criteria, the drug is considered "active", and subsequent readings are taken at 60 and 120 minutes after drug. The time for last statistically significant drug affect on mean body temperature is indicated in minutes. […] Active compounds are retested using oral administration. Potency is given as mg/kg ED50 (dose required to depress temperature in two of four mice) as measured by Spearman-Karber statistics.

Data set [6] in a line: Oral plasma bioavailability. The class given is in vivo. As to conditions: rat, 6 mg/kg, conscious rats. As for the experimental part:
Oral Bioavailability: Comparison of the disappearance of compound from plasma following oral (6 mg/kg) and intravenous (2 mg/kg) administration in conscious rats. Parent compound in plasma was measured at multiple time points following administration using HPLC methodology. Bioavailability is expressed as a percentage of the drug in plasma following oral administration compared to that following intravenous administration.

Data set [7] is described as follows: Blood pressure at the SND ED50 dose (BP SND/MAX). The data set is classed as in vivo. As to conditions: at the dose which inhibited sympathetic activity by 50%, i.v., chloralose anesthetized cats. As for the experimental part: BP SND/MAX: The blood pressure of the chloralose anesthetized cats in percent control at the dose causing 50% depression in SND and the maximum reduction in blood pressure as percent of the control blood pressure in the same animals observed in the dose range tested (0.001-1.0 mg/kg i.v.).

Data set [8] can be described thus: Pharmacokinetics following constant infusion (steady state clearance). As to conditions: plasma, iv; after 12 hour infusion (300 µg/hour), anesthetized rat; read-out: In vivo steady state clearance. As for the experimental part: Pharmacokinetics Following Constant Infusion: Clearance rate (ml/min/kg) was determined following a 12 hour infusion (300 µg/hour) of compound in the anesthetized rat. Disappearance of parent compound from plasma was measured at multiple time points following cessation of the infusion using HPLC methodology.

For data set [9] the following is noted: rat, in vivo; cited from earlier work.
Where [10] appears, read: sc, subcutaneous (s.c.) administration.

pIC50: −log10 of the molar value.

Regarding `CCCN1CCC2c3c(cccc3C(N)=O)CCC21` (single isomer, unassigned) [Compound 3, cis-(+)2,3,3a,4,5,9b-hexahydro-9-carboxamido-3-(n-propyl)-1H-benz[e]indole], the pIC50 in data set [1] was 6.27. Moreover, the ED50 is more than 300 µg/kg in [2] and more than 1 mg/kg in [3].
For the molecule `CCCN1CCC[C@H]2c3c(cccc3C(N)=O)CC[C@@H]21` (single isomer, unassigned) [Compound 6, trans-(+)1,2,3,4,4a,5,6,10b-octahydro-10-carboxamido-4-(n-propyl)-benzo[f]quinoline], the “relative metabolic stability (rel. stab.)” value (shortened to “relative metabolic stability”) in data set [4] amounted to 1.05.
On to `CCCN1CCCC2c3c(cccc3C(N)=O)CCC21` (racemic) [Compound 4, trans-(±)1,2,3,4,4a,5,6,10b-octahydro-10-carboxamido-4-(n-propyl)-benzo[f]quinoline], for which the pIC50 in data set [1] was 8.43. Also, the values for the 50% effective dose (ED50) in [5] (oral (p.o.) administration) and in data set [5] (setting [10]) were 4.1 mg/kg and 0.23 mg/kg, respectively.
For the molecule `CCCN1CC[C@H]2c3c(cccc3C(N)=O)CC[C@H]21` (racemic) [Compound 1, cis-(±)2,3,3a,4,5,9b-hexahydro-9-carboxamido-3-(n-propyl)-1H-benz[e]indole], the bioavailability in data set [6] (Study 1, oral 6 mg/kg vs i.v. 2 mg/kg) is 59%; in data set [6] (Study 2, samples taken for 24 hours after administration, oral 6 mg/kg vs i.v. 2 mg/kg) it was 70%. Also, the negative logarithm of the IC50 (pIC50) in data set [1] was 8.28. For the same molecule, the ED50 in data set [2] is 2 µg/kg; in data set [5] (oral (p.o.) administration) it was 7.3 mg/kg; in [5] (setting [10]), 0.97 mg/kg; in data set [3] it was 0.037 mg/kg. In addition, in [7], the “Percent of control arterial blood pressure” value (“Percent” below) is 82%. For the same molecule, the “In vitro hepatocyte assay clearance” value in [4] is on record as “.013 ml/min/5 million cells”. In addition, the “relative metabolic stability” value in data set [4] stood at 1.0. In addition, the clearance in data set [8] came out at 58 mL/min/kg.
For `CCCN1CC[C@H]2c3c(cccc3C(N)=O)CC[C@H]21` (single isomer, unassigned) [Compound 2, cis-(-)2,3,3a,4,5,9b-hexahydro-9-carboxamido-3-(n-propyl)-1H-benz[e]indole], the pIC50 in data set [1] is 7.99. Moreover, the results for the ED50 in data set [2] and in [3] were 6 µg/kg and 0.019 mg/kg, respectively. Also, the “Percent” value in [7] turned out to be 84%.
As for `CCCN1CCCC2c3c(cccc3C(N)=O)CCC21` (single isomer, unassigned) [Compound 5, trans-(-)1,2,3,4,4a,5,6,10b-octahydro-10-carboxamido-4-(n-propyl)-benzo[f]quinoline], the bioavailability in data set [6] (study not given, oral 6 mg/kg vs i.v. 2 mg/kg) is 86%. For the same molecule, the pIC50 in [1] is 8.82. Moreover, the ED50 in [2] is more than 100 µg/kg; in data set [5] (setting [10]) it was 1.73 mg/kg; in data set [3] it was 0.15 mg/kg. Also, the “Percent” value in data set [7] was 85%. Besides, in [4], the “In vitro hepatocyte assay clearance” value was “.012 ml/min/5 million cells”. The “relative metabolic stability” value in data set [4] is 3.59. Further, in data set [8], the clearance amounted to 43 mL/min/kg.
As to `CCCN(CCC)C1CCc2cccc(O)c2C1` (centres unmarked) [8-OH DPAT], the plasma oral bioavailability in data set [9] is listed as less than 5%.

In general, pIC50 refers to the negative decadic logarithm of the IC50, by convention in mol/L. As a reminder, the ED50 is the dose at which the effect has come halfway, by size or by number of responders. By bioavailability is commonly meant the share of a dose that reaches the circulation, judged against a reference dose that is usually intravenous. Low readings indicate little systemic uptake, high ones much systemic uptake. For orientation: clearance means the rate of elimination divided by the concentration.
